{
  "source": "ChEMBL document CHEMBL4311992",
  "about": "“Discovery of 3-(((9H-purin-6-yl)amino)methyl)-4,6-dimethylpyridin-2(1H)-one derivatives as novel tubulin polymerization inhibitors for treatment of cancer” (Eur J Med Chem, 2019)",
  "key": {"[1]": {"experiment": "Toxicity in nude BALB/c mouse assessed as change in AST level at 40 to 80 mg/kg, po once daily for 4 weeks measured post-last dose", "type": "organism-based", "conditions": "in vivo, 672 h"}, "[2]": {"test_system": "RAF proto-oncogene serine/threonine-protein kinase (Homo sapiens), P04049 [Y340D,Y341D]", "experiment": "Inhibition of recombinant human c-RAF Y340D/Y341D mutant (360 to end residues) assessed as residual activity at 10 uM using inactive MEK1 as substrate measured after 40 mins in presence of [gamma33P]ATP by scintillation counting method"}, "[3]": {"experiment": "Toxicity in nude BALB/c mouse assessed as change in uric acid level at 40 to 80 mg/kg, po once daily for 4 weeks measured post-last dose", "type": "organism-based", "conditions": "in vivo, 672 h"}, "[4]": {"test_system": "HT-29", "experiment": "Antiproliferative activity against human HT-29 cells assessed as reduction in cell viability after 72 hrs by MTT assay", "type": "functional, cell-based", "conditions": "HT-29, 72 h"}, "[5]": {"biological_target": "Serine/threonine-protein kinase WNK2 (Homo sapiens) (UniProt Q9Y3S1)", "experiment": "Inhibition of human WNK2 (166 to 489 residues) using myelin basic protein as substrate measured after 40 mins in presence of [gamma33P]ATP by scintillation counting method", "design": "scale not given: the % may be the effect or the level left"}, "[6]": {"species_on_record": "Homo sapiens", "experiment": "Inhibition of recombinant human Mer H628Q/R794A mutant (557 to 882 residues) assessed as residual activity at 10 uM using GGMEDIYFEFMGGKKK as substrate measured after 40 mins in presence of [gamma33P]ATP by scintillation counting method"}, "[7]": {"biological_target": "Inhibitor of nuclear factor kappa-B kinase subunit beta (Homo sapiens) (UniProt O14920)", "sequence (O14920 whole entry)": "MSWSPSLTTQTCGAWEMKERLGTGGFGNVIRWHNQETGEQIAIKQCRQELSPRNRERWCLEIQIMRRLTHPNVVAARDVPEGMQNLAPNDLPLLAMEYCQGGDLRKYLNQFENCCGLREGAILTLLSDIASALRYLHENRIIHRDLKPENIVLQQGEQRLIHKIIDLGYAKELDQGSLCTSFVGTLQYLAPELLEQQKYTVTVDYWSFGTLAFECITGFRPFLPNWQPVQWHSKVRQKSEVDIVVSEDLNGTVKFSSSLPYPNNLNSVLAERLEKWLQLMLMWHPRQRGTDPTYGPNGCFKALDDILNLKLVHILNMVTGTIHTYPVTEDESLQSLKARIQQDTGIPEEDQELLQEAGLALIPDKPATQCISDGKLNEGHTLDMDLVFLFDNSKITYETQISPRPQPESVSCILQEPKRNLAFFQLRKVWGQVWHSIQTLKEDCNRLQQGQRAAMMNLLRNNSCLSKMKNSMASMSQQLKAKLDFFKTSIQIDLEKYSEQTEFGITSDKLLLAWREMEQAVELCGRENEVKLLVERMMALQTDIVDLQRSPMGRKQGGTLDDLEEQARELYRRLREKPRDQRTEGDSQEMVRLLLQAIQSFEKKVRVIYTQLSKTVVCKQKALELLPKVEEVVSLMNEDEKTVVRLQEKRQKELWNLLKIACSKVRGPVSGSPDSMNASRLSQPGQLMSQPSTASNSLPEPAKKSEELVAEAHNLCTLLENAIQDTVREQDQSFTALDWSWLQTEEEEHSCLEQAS", "experiment": "Inhibition of recombinant full-length human IKKbeta assessed as residual activity at 10 uM using peptide substrate measured after 40 mins in presence of [gamma33P]ATP by scintillation counting method"}, "[8]": {"biological_target": "Testis-specific serine/threonine-protein kinase 2 (Homo sapiens) (UniProt Q96PF2)", "sequence (Q96PF2 whole entry)": "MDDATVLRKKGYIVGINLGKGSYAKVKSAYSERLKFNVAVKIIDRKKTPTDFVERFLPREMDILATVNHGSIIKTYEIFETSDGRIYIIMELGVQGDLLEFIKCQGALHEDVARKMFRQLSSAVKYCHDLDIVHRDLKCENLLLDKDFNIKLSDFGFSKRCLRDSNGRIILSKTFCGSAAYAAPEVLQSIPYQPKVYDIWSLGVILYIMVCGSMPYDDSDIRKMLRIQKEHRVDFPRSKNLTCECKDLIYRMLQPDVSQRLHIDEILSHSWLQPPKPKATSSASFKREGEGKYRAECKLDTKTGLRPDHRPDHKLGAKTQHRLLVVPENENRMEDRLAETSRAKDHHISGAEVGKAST", "experiment": "Inhibition of recombinant full-length human TSSK2 assessed as residual activity at 10 uM using KKKVSRSGLYRSPSMPENLNRPR as substrate measured after 40 mins in presence of [gamma33P]ATP by scintillation counting method"}, "[9]": {"biological_target": "Serine/threonine-protein kinase 3 (Homo sapiens) (UniProt Q13188)", "sequence (Q13188 whole entry)": "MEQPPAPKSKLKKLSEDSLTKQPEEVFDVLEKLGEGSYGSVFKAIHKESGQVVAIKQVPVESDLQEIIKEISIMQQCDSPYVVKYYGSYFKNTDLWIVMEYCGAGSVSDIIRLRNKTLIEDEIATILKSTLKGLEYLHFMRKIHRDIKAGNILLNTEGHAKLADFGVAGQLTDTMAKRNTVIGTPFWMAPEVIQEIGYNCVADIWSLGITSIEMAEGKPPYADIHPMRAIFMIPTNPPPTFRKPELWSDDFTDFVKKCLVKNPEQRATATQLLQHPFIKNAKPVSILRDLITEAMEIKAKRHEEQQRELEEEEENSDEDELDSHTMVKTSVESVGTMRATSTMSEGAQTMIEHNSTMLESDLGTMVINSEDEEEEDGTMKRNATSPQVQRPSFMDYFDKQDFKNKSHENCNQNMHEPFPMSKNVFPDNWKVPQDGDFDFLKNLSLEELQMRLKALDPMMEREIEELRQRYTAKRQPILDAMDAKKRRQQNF", "experiment": "Inhibition of recombinant full-length human MST2 (2 to end residues) assessed as residual activity at 10 uM using myelin basic protein as substrate measured after 40 mins in presence of [gamma33P]ATP by scintillation counting method"}, "[10]": {"biological_target": "Cyclin-dependent kinase 13/Cyclin-K (Homo sapiens) (UniProt Q14004+O75909)", "experiment": "Inhibition of recombinant full length human CDK13/cyclinK assessed as residual activity at 10 uM using RSRSRSRSRSRSRSR as substrate measured after 120 mins in presence of [gamma33P]ATP by scintillation counting method", "type": "protein-complex assay"}, "[11]": {"biological_target": "Serine/threonine-protein kinase 25 (Homo sapiens) (UniProt O00506)", "sequence (O00506 whole entry, looked up, the tested form may be a part)": "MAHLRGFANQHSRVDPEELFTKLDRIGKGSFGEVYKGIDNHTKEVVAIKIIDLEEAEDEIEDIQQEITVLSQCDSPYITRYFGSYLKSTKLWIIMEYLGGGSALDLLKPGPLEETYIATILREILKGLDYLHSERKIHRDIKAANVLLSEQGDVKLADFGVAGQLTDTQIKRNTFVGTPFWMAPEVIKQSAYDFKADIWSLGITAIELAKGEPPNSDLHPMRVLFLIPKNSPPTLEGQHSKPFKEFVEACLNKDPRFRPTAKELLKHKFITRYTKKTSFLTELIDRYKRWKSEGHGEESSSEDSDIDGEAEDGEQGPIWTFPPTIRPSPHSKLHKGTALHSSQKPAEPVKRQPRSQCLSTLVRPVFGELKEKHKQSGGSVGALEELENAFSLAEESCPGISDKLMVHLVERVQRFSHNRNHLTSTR", "experiment": "Inhibition of human STK25 (1 to 308 residues) using RLGRDKYKTLRQIRQ as substrate measured after 40 mins in presence of [gamma33P]ATP by scintillation counting method", "design": "scale not given: the % may be the effect or the level left"}, "[12]": {"test_system": "A549", "experiment": "Antiproliferative activity against human A549 cells assessed as reduction in cell viability after 72 hrs by MTT assay", "type": "functional, cell-based", "conditions": "A549, 72 h"}, "[13]": {"biological_target": "Serine/threonine-protein kinase WNK1 (Homo sapiens) (UniProt Q9H4A3)", "experiment": "Inhibition of human WNK1 (1 to 491 residues) using myelin basic protein as substrate measured after 120 mins in presence of [gamma33P]ATP by scintillation counting method", "design": "scale not given: the % may be the effect or the level left"}, "[14]": {"test_system": "Receptor-type tyrosine-protein kinase FLT3 (Homo sapiens), P36888 [D835Y]", "experiment": "Inhibition of recombinant human Flt3 D835Y mutant (564 to end residues) assessed as residual activity at 10 uM using EAIYAAPFAKKK as substrate measured after 40 mins in presence of [gamma33P]ATP by scintillation counting method"}, "[15]": {"biological_target": "BDNF/NT-3 growth factors receptor (Homo sapiens) (UniProt Q16620)", "sequence (Q16620 32-822 limits assumed)": "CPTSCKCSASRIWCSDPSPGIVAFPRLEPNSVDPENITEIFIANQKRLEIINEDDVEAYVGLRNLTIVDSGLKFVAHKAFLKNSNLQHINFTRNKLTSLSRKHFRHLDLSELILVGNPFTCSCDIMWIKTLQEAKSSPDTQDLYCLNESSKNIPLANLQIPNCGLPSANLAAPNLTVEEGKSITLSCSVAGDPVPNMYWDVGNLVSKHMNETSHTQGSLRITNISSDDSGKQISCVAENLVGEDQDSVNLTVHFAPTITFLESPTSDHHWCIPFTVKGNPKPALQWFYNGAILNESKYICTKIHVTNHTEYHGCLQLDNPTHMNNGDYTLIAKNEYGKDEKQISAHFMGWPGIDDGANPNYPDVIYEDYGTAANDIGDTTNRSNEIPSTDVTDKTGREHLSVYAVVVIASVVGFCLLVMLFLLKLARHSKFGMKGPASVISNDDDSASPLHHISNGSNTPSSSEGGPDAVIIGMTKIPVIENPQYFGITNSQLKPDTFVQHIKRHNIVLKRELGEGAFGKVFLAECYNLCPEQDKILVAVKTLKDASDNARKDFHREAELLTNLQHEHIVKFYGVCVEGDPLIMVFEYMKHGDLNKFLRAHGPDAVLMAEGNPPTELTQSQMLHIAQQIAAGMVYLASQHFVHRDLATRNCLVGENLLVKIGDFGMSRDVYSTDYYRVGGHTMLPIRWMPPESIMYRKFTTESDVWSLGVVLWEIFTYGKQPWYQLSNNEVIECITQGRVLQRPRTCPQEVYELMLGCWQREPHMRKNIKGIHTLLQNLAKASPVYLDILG", "experiment": "Inhibition of human TrkB (455 to end residues) using poly(Glu, Tyr) 4:1 as substrate measured after 40 mins in presence of [gamma33P]ATP by scintillation counting method", "design": "scale not given: the % may be the effect or the level left"}, "[16]": {"biological_target": "Inhibitor of nuclear factor kappa-B kinase subunit alpha (Homo sapiens) (UniProt O15111)", "experiment": "Inhibition of recombinant full-length human IKKalpha ([…]) assessed as residual activity at 10 uM using peptide substrate measured after 40 mins in presence of [gamma33P]ATP by scintillation counting method"}, "[17]": {"test_system": "Tyrosine-protein kinase ABL1 (Homo sapiens), P00519 [T315I]", "experiment": "Inhibition of recombinant human ABL T315I mutant (27 to end residues) assessed as residual activity at 10 uM using EAIYAAPFAKKK as substrate measured after 40 mins in presence of [gamma33P]ATP by scintillation counting method"}, "[18]": {"test_system": "Epidermal growth factor receptor (Homo sapiens), P00533 [L861Q]", "experiment": "Inhibition of recombinant human EGFR L861Q mutant (696 to end residues) assessed as residual activity at 10 uM using poly(Glu, Tyr) 4:1 as substrate measured after 40 mins in presence of [gamma33P]ATP by scintillation counting method"}, "[19]": {"biological_target": "Phosphatidylinositol 4-phosphate 3-kinase C2 domain-containing subunit alpha (Homo sapiens) (UniProt O00443)", "experiment": "Inhibition of recombinant human PI3KC2alpha (299 to end residues) assessed as residual activity at 10 uM using phosphatidylinositol as substrate measured after 40 mins by HTRF assay"}, "[20]": {"biological_target": "Vascular endothelial growth factor receptor 2 (Homo sapiens) (UniProt P35968)", "experiment": "Inhibition of recombinant human KDR (790 to end residues) assessed as residual activity at 10 uM using myelin basic protein substrate measured after 40 mins in presence of [gamma33P]ATP by scintillation counting method"}, "[21]": {"biological_target": "Mitogen-activated protein kinase 10 (Homo sapiens) (UniProt P53779)", "sequence (P53779 whole entry)": "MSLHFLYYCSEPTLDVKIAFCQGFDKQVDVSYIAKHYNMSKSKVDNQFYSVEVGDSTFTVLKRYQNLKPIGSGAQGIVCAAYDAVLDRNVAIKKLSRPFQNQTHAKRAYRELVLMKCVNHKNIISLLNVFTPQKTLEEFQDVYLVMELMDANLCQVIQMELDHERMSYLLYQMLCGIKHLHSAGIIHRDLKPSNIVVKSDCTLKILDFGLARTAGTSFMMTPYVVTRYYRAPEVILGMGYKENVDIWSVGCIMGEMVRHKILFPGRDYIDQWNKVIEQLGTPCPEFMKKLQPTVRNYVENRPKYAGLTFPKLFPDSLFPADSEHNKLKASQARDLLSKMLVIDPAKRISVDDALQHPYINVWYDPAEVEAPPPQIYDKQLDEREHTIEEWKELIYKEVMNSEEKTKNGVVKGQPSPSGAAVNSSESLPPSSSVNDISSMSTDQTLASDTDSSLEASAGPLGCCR", "experiment": "Inhibition of recombinant full-length human JNK3 assessed as residual activity at 10 uM using peptide substrate measured after 40 mins in presence of [gamma33P]ATP by scintillation counting method"}, "[22]": {"biological_target": "Serine/threonine-protein kinase STK11 (Homo sapiens) (UniProt Q15831)", "sequence (Q15831 whole entry)": "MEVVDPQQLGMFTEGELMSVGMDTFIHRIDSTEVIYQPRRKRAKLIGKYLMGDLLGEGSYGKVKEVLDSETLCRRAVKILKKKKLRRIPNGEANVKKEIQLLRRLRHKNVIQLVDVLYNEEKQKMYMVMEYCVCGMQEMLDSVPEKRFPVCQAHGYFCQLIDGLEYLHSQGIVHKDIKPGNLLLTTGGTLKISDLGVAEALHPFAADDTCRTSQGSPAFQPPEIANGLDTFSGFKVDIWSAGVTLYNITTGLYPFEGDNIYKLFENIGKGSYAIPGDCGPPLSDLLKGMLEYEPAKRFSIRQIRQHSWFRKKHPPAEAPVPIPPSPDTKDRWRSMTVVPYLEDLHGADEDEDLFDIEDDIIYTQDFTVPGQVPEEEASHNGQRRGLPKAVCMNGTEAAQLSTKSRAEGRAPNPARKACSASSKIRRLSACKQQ", "experiment": "Inhibition of recombinant full-length human LKB1 assessed as residual activity at 10 uM using LSNLYHQGKFLQTFCGSPLYRRR as substrate measured after 40 mins in presence of [gamma33P]ATP by scintillation counting method"}, "[23]": {"biological_target": "Serine/threonine-protein kinase VRK1 (Homo sapiens) (UniProt Q99986)", "sequence (Q99986 whole entry)": "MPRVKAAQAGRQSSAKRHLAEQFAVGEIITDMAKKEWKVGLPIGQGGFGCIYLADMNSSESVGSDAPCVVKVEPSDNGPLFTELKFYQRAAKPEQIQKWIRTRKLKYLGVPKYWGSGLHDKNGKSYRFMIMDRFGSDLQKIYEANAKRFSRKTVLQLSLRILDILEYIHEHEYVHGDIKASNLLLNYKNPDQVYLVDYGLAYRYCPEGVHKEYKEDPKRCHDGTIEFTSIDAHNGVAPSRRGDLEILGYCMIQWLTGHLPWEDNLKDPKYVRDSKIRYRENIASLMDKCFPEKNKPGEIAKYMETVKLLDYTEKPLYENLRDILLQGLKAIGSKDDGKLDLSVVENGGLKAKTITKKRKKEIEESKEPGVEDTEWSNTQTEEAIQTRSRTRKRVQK", "experiment": "Inhibition of human VRK1 assessed as residual activity at 10 uM by radiometric method"}, "[24]": {"biological_target": "AP2-associated protein kinase 1 (Homo sapiens) (UniProt Q2M2I8)", "experiment": "Inhibition of human AAK1 assessed as residual activity at 10 uM using peptide substrate measured after 120 mins in presence of [gamma33P]ATP by scintillation counting method"}, "[25]": {"biological_target": "Interleukin-1 receptor-associated kinase 1 (Homo sapiens) (UniProt P51617)", "sequence (P51617 whole entry, looked up)": "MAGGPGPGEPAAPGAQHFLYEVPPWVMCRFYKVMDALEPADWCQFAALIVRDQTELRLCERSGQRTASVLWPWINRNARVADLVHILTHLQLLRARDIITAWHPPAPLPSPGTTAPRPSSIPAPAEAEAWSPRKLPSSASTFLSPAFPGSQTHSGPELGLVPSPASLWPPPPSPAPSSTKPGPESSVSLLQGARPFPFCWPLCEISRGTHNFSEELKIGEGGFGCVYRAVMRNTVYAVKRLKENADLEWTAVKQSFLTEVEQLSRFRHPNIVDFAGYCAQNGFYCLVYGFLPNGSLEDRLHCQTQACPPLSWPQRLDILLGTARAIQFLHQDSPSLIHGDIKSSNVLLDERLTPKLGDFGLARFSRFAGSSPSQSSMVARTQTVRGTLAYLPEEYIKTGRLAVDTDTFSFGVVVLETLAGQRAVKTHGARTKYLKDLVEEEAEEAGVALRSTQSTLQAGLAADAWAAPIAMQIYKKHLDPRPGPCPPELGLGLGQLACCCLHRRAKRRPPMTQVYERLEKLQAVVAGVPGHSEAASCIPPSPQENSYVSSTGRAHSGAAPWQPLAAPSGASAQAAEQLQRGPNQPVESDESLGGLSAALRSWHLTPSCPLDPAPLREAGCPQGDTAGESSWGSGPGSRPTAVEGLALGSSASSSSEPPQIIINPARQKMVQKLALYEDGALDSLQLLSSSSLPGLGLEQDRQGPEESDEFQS", "experiment": "Inhibition of recombinant human IRAK1 (194 to end residues) assessed as residual activity at 10 uM using myelin basic protein as substrate measured after 40 mins in presence of [gamma33P]ATP by scintillation counting method"}},
  "data": [
    {"smiles": "Cc1cc(C)c(CNc2nc(Cl)nc3c2ncn3C2CCCC2)c(=O)[nH]1", "values": [
      {"measurement": "Activity", "setting": "[1]", "value": "Non-Toxic"},
      {"measurement": "Activity", "setting": "[2]", "value": 96.5, "unit": "%"},
      {"measurement": "Activity", "setting": "[3]", "value": "Non-Toxic"},
      {"measurement": "IC50", "setting": "[4]", "value": 71, "unit": "nM"},
      {"measurement": "Activity", "setting": "[5]", "value": 110, "unit": "%"},
      {"measurement": "Activity", "setting": "[6]", "value": 109, "unit": "%"},
      {"measurement": "Activity", "setting": "[7]", "value": 102, "unit": "%"},
      {"measurement": "Activity", "setting": "[8]", "value": 117, "unit": "%"},
      {"measurement": "Activity", "setting": "[9]", "value": 110, "unit": "%"},
      {"measurement": "Activity", "setting": "[10]", "value": 97, "unit": "%"},
      {"measurement": "Activity", "setting": "[11]", "value": 106, "unit": "%"},
      {"measurement": "IC50", "setting": "[12]", "value": 98, "unit": "nM"},
      {"measurement": "Activity", "setting": "[13]", "value": 104, "unit": "%"},
      {"measurement": "Activity", "setting": "[14]", "value": 85.5, "unit": "%"},
      {"measurement": "Activity", "setting": "[15]", "value": 126, "unit": "%"},
      {"measurement": "Activity", "setting": "[16]", "value": 88.5, "unit": "%"},
      {"measurement": "Activity", "setting": "[17]", "value": 108, "unit": "%"},
      {"measurement": "Activity", "setting": "[18]", "value": 98.5, "unit": "%"},
      {"measurement": "Activity", "setting": "[19]", "value": 112, "unit": "%"},
      {"measurement": "Activity", "setting": "[20]", "value": 107, "unit": "%"},
      {"measurement": "Activity", "setting": "[21]", "value": 142, "unit": "%"},
      {"measurement": "Activity", "setting": "[22]", "value": 110, "unit": "%"},
      {"measurement": "Activity", "setting": "[23]", "value": 92.5, "unit": "%"},
      {"measurement": "Activity", "setting": "[24]", "value": 105, "unit": "%"},
      {"measurement": "Activity", "setting": "[25]", "value": 102, "unit": "%"}
    ]}
  ]
}
